Laboratory results reported in patent US20250296971A1, “GASTRIC INHIBITORY PEPTIDE RECEPTOR LIGANDS” (priority 2021, published 2025).
Like-named read-outs stand apart in the source and are kept apart here. *1 amine or outer side, *2 acyl side, *3 side chain or, on linkers, in order; H or OH if unused. Where a SMILES comes first, the peptide text is derived from it. Bridges are numbered along the chain shown (N, C = ends). [ ]: non-standard residue; d: D form. The star is where a group is joined. X17 = O=C(CC[C@H](NC(=O)CN1CCN2CCN3CCN(CC1)CC(=O)[O][Lu]([O]C(=O)C2)[O]C(=O)C3)C(=O)*)NC[C@H](O)[C@@H](O)[C@H](O)[C@H](O)CO; X5 = NC(=O)[C@H](CCCCNC(=O)CN1CCN(CC(=O)O)CCN(CC(=O)O)CCN(CC(=O)O)CC1)NC(=O)CCC(=O)NCCCOCCOCCOCCCN*; X13 = O=C(CN1CCN2CCN3CCN(CC1)CC(=O)[O][Lu]([O]C(=O)C2)[O]C(=O)C3)NCCCOCCOCCOCCCN*; NH(1-deoxy-D-glucityl) = OC[C@@H](O)[C@@H](O)[C@H](O)[C@@H](O)CN*; DOTA = O=C(O)CN1CCN(CC(=O)O)CCN(CC(=O)*)CCN(CC(=O)O)CC1; Maleimide(3,4-diyl) = O=C1NC(=O)C([*:2])=C1[*:1]; Trp(5-Cl) = N[C@@H](Cc1c[nH]c2ccc(Cl)cc12)C(=O)O; Pyridine(2,6-diCH2) = c1cc(C[*:1])nc(C[*:2])c1; Phe(2,4-Cl2) = N[C@@H](Cc1ccc(Cl)cc1Cl)C(=O)O; Propanoyl(3-(4-Cl-Ph)) = O=C(CCc1ccc(Cl)cc1)*; Pro(4R-NH2) = N[C@H]1CN[C@H](C(=O)O)C1; mXylylene = c1cc(C[*:1])cc(C[*:2])c1; Glutaryl = O=C(CCCC(=O)[*:2])[*:1]; X7 = c1cc(CSCCN[*:2])cc(C[*:1])c1; Hyp = O=C(O)[C@@H]1C[C@@H](O)CN1; X1 = O=C(CN1CCC(N[*:1])CC1)[*:2]; Pen = CC(C)(S)[C@H](N)C(=O)O; Suc = O=C(CCC(=O)[*:2])[*:1]; αMeS = C[C@](N)(CO)C(=O)O; Api = NC1(C(=O)O)CCNCC1; Thp = NC1(C(=O)O)CCOCC1; Aib = CC(C)(N)C(=O)O

Molecular target: T1, GIPR (CHO-K1-hGIPR cells) (Homo sapiens, UniProt P48546)
T1 construct: host or cells: CHO-K1
T1 sequence (P48546 22-466): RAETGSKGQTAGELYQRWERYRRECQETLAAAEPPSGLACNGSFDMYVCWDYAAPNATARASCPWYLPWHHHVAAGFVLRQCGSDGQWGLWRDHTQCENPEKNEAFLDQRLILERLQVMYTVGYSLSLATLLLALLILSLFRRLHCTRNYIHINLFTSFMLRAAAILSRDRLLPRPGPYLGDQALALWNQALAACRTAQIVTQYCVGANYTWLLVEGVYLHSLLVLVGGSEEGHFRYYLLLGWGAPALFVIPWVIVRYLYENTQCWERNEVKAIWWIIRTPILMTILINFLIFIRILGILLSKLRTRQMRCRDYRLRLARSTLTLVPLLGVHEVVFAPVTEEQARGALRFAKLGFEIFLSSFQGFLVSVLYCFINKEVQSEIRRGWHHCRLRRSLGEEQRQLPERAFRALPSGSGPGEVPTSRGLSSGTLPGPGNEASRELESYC
Assay: FACS binding assay
In short: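 Peptide binding read by flow cytometry as APC-channel median fluorescence, fitted with a four-parameter logistic to yield EC50 or IC50. Cells were hGIPR-transfected CHO-K1 in PBS with 1% FCS, detected with 1 μg/mL APC-streptavidin, 30 min on ice.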

[1] = pIC50 Category, competition with 20 nM GIP-057, 4° C., 1 hour
[2] = competition with 20 nM GIP-057, 4° C. for 1 hour, read-out: pIC50 Category (converted)

Row | SMILES | IC50 [2] [nM] | further results
1 | CC[C@H](C)[C@@H]1NC(=O)[C@H](CC(C)C)NC(=O)[C@](C)(CO)NC(=O)[C@@H](NC(=O)[C@@H](CC(C)C)NC(=O)[C@H](CCC(=O)O)NC(=O)[C@@H]2CCCN2C(=O)[C@H](Cc2c[nH]c3ccc(Cl)cc23)NC(=O)[C@H](Cc2c[nH]c3ccccc23)NC(=O)[C@H](CC(=O)O)NC(=O)CCC(=O)NCCCOCCOCCOCCCNC(=O)CN2CCN3CCN4CCN(CC2)CC(=O)[O][Lu]([O]C(=O)C3)[O]C(=O)C4)CSCc2cccc(c2)CSCCNC1=O [GIP-157, LuDOTA-Ttds-Asp-Trp-5Clw-Pro-Glu-leu-[Cys(3MeBn)-Ams-Leu-Ile-AET]] ({X13-Suc}-DW[Trp(5-Cl)]PE[dL]C[αMeS]LI; linker 7-C via X7) |  | IC50 [1]: < 10 nM
2 | CC[C@H](C)[C@@H]1NC(=O)[C@H](CC(C)C)NC(=O)C(C)(C)NC(=O)[C@@H](NC(=O)[C@H](CC(C)C)NC(=O)[C@H](CCC(=O)O)NC(=O)[C@@H]2CCCN2C(=O)[C@H](Cc2c[nH]c3ccccc23)NC(=O)[C@H](Cc2c[nH]c3ccccc23)NC(=O)[C@H](CC(=O)O)NC(C)=O)C(C)(C)SCc2cccc(c2)CSC[C@@H](C(N)=O)NC1=O [GIP-338, Ac-Asp-Trp-Trp-Pro-Glu-Leu-[Pen(3MeBn)-Aib-Leu-Ile-Cys]-NH2] (Ac-DWWPEL[Pen][Aib]LIC-NH2; linker 7-11 via mXylylene) | > 1000 | 
3 | CC[C@H](C)[C@@H]1NC(=O)[C@H](CC(C)C)NC(=O)C2(CCOCC2)NC(=O)[C@@H](NC(=O)[C@@H](CC(C)C)NC(=O)[C@H](CCC(=O)O)NC(=O)[C@@H]2C[C@@H](O)CN2C(=O)[C@H](Cc2ccc(Cl)cc2Cl)NC(=O)[C@H](Cc2c[nH]c3ccccc23)NC(=O)[C@H](CC(=O)O)NC(C)=O)CSCc2cccc(n2)CSC[C@@H](C(N)=O)NC1=O [GIP-351, Ac-Asp-Trp-Egm-Hyp-Glu-leu-[Cys(2Lut)-Thp-Leu-Ile-Cys]-NH2] (Ac-DW[Phe(2,4-Cl2)][Hyp]E[dL]C[Thp]LIC-NH2; linker 7-11 via Pyridine(2,6-diCH2)) | > 1000 | 
4 | CC[C@H](C)[C@@H]1NC(=O)[C@H](CC(C)C)NC(=O)C2(CCN(C(=O)CN3CCN(CC(=O)O)CCN(CC(=O)O)CCN(CC(=O)O)CC3)CC2)NC(=O)[C@@H](NC(=O)[C@@H](CC(C)C)NC(=O)[C@H](CCC(=O)O)NC(=O)[C@@H]2C[C@@H](O)CN2C(=O)[C@H](Cc2c[nH]c3ccc(Cl)cc23)NC(=O)[C@H](Cc2c[nH]c3ccccc23)NC(=O)[C@H](CC(=O)O)NC(C)=O)CSCc2cccc(n2)CSC[C@@H](C(N)=O)NC1=O [GIP-122, Ac-Asp-Trp-5Clw-Hyp-Glu-leu-[Cys(2Lut)-Apc(DOTA)-Leu-Ile-Cys]-NH2] (Ac-DW[Trp(5-Cl)][Hyp]E[dL]C[Api](DOTA)LIC-NH2; linker 7-11 via Pyridine(2,6-diCH2)) |  | IC50 (competition with 20 nM GIP-057, 4° C., 1 hour, read-out: pIC50 Category (converted)): < 10 nM
5 | CC[C@H](C)[C@@H]1NC(=O)[C@H](CC(C)C)NC(=O)C2(CCN(C(=O)[C@H](CCC(=O)NC[C@H](O)[C@@H](O)[C@H](O)[C@H](O)CO)NC(=O)CN3CCN4CCN5CCN(CC3)CC(=O)[O][Lu]([O]C(=O)C4)[O]C(=O)C5)CC2)NC(=O)[C@@H](NC(=O)[C@@H](CC(C)C)NC(=O)[C@H](CCC(=O)O)NC(=O)[C@@H]2C[C@@H](N)CN2C(=O)[C@H](Cc2c[nH]c3ccc(Cl)cc23)NC(=O)[C@H](Cc2c[nH]c3ccccc23)NC(=O)[C@H](CC(=O)O)NC(=O)CN2CCC(NC(=O)CCCC(=O)NC[C@H](O)[C@@H](O)[C@H](O)[C@H](O)CO)CC2)CSCc2cccc(n2)CSC[C@@H](C(=O)NC2CCN(CC(=O)N[C@H](CCC(=O)NC[C@H](O)[C@@H](O)[C@H](O)[C@H](O)CO)C(N)=O)CC2)NC1=O [GIP-061, AGLU-Glutar-APAc-Asp-Trp-5Clw-Tap-Glu-leu-[Cys(2Lut)-Apc(LuDOTA-glu(AGLU))-Leu-Ile-Cys]-APAc-glu(AGLU)-NH2] ({NH(1-deoxy-D-glucityl)-Glutaryl}-[X1]DW[Trp(5-Cl)][Pro(4R-NH2)]E[dL]C[Api](X17)LIC[X1][dE](NH(1-deoxy-D-glucityl))-NH2; linker 8-12 via Pyridine(2,6-diCH2)) |  | IC50 [1]: < 10 nM
6 | CC[C@H](C)[C@@H]1NC(=O)[C@H](CC(C)C)NC(=O)C(C)(C)NC(=O)[C@@H](NC(=O)[C@@H](CC(C)C)NC(=O)[C@H](CCC(=O)O)NC(=O)[C@@H]2CCCN2C(=O)[C@H](Cc2c[nH]c3ccccc23)NC(=O)[C@H](Cc2c[nH]c3ccccc23)NC(=O)[C@H](CC(=O)O)NC(=O)CCc2ccc(Cl)cc2)CSCc2cccc(c2)CSC[C@@H](C(=O)NCCCOCCOCCOCCCNC(=O)CCC(=O)N[C@@H](CCCCNC(=O)CN2CCN(CC(=O)O)CCN(CC(=O)O)CCN(CC(=O)O)CC2)C(N)=O)NC1=O [GIP-279, 4ClPhp-Asp-Trp-Trp-Pro-Glu-leu-[Cys(3MeBn)-Aib-Leu-Ile-Cys]-Ttds-Lys(DOTA)-NH2] ({Propanoyl(3-(4-Cl-Ph))}-DWWPE[dL]C[Aib]LIC-X5; linker 7-11 via mXylylene) | 100 to 794 | 
7 | CC[C@H](C)[C@@H]1NC(=O)[C@H](CC(C)C)NC(=O)C2(CCOCC2)NC(=O)[C@@H](NC(=O)[C@@H](CC(C)C)NC(=O)[C@H](CCC(=O)O)NC(=O)[C@@H]2C[C@@H](O)CN2C(=O)[C@H](Cc2c[nH]c3ccc(Cl)cc23)NC(=O)[C@H](Cc2c[nH]c3ccccc23)NC(=O)[C@H](CC(=O)O)NC(C)=O)CSC2=C(SC[C@@H](C(N)=O)NC1=O)C(=O)NC2=O [GIP-360, Ac-Asp-Trp-5Clw-Hyp-Glu-leu-[Cys(mli)-Thp-Leu-Ile-Cys]-NH2] (Ac-DW[Trp(5-Cl)][Hyp]E[dL]C[Thp]LIC-NH2; linker 7-11 via Maleimide(3,4-diyl)) | < 10 | 
